In patent publication US20110033488A1, “AGENTS AND METHODS FOR TREATMENT OF ANXIETY DISORDERS” (Yeda Research and Development Co. Ltd., priority 2008, published 2011):
Peptide text beside a SMILES is read from it.

Columns and labels:
[1] = test system: ICAM-1 on choroid plexus cells (ECACC # 00031626); assay: ICAM-1 expression on choroid plexus cell line; format: cell-based, rat; details: for ICAM-1 expression: 24 hrs
Experimental: (iv) Choroid Plexus endothelial cell culture. RCP cells (ECACC # 00031626, a kind gift from Dr. A. Chen, Weizmann Institute) (Battle et al., 2000) were cultured at 37° C. under 95% air/5% CO2 in DMEM medium containing 10% FCS, 100 U/ml penicillin, […], 1% insulin-transferrin-selenium mix (Sigma-Aldrich) and 0.1% Epidermal Growth Factor ([…]). The culture medium was changed every 2 days.
CPx cultures grown on cover slips were washed with PBS, and fixed as described above. The fixed cells were then treated with a blocking solution containing 10% FCS, 2% bovine serum albumin, 1% glycine, and 0.1% Triton X-100 (Sigma-Aldrich), and stained with hamster anti-mouse CD54 (ICAM-1) (Chemicon).

mice = details: one immunization with 100 μg peptide, without pertussis toxin
[2] = all concentrations tested (1-100 ng/ml)

Q: Which results are given for `C[C@]12C[C@H](O)[C@H]3[C@@H](CCC4=CC(=O)CC[C@@]43C)[C@@H]1CC[C@@H]2C(=O)CO` [corticosterone, reference compound]?
A: Concentration of peak ICAM-1 expression ([1]; 24 hrs incubation): 1 ng/mL; ICAM-1 expression ([1]; higher doses 20 ng/ml and 50 ng/ml): significantly inhibited; ICAM-1 expression ([1]; lower doses 1 ng/ml and 5 ng/ml): significantly elevated

Q: For `CSCC[C@H](N)C(=O)N[C@@H](CCC(=O)O)C(=O)N[C@H](C(=O)NCC(=O)N[C@@H](Cc1c[nH]c2ccccc12)C(=O)N[C@@H](Cc1ccc(O)cc1)C(=O)N[C@@H](CCCNC(=N)N)C(=O)N[C@@H](CO)C(=O)N1CCC[C@H]1C(=O)N[C@@H](Cc1ccccc1)C(=O)N[C@@H](CO)C(=O)N[C@@H](CCCNC(=N)N)C(=O)N[C@H](C(=O)N[C@H](C(=O)N[C@@H](Cc1c[nH]cn1)C(=O)N[C@@H](CC(C)C)C(=O)N[C@@H](Cc1ccc(O)cc1)C(=O)N[C@@H](CCCNC(=N)N)C(=O)N[C@@H](CC(N)=O)C(=O)NCC(=O)N[C@@H](CCCCN)C(=O)O)C(C)C)C(C)C)C(C)C` [pMOG35-55] (H-MEVGWYRSPFSRVVHLYRNGK-OH; N-terminus and C-terminus assumed), which “Induction of EAE” value (mice) is on record?
A: The value was “no EAE was induced”.

Q: With IFN-γ: cytokine as the molecule, how does the ICAM-1 expression ([1]; higher concentrations) read?
A: The ICAM-1 expression was “significant inhibition”.

Q: And the ICAM-1 expression ([1]; lower concentrations (1 ng and 10 ng))?
A: The ICAM-1 expression was “inactive”.

Q: For IL-6: cytokine, which ICAM-1 expression [1, 2] is on record?
A: Its ICAM-1 expression is “no effect”.

Q: For TNF-α, which ICAM-1 expression [1, 2] is on record?
A: The ICAM-1 expression was “significant elevation”.

B1: IL-10: cytokine (protein, UniProt P22301 19-178, looked up)
Interleukin-10: SPGQGTQSENSCTHFPGNLPNMLRDLRDAFSRVKTFFQMKDQLDNLLLKESLLEDFKGYLGCQALSEMIQFYLEEVMPQAENQDPDIKAHVNSLGENLKTLRLRLRRCHRFLPCENKSKAVEQVKNAFNKLQEKGIYKAMSEFDIFINYIEAYMTMKIRN
Q: With B1 as the molecule, how does the ICAM-1 expression [1, 2] read?
A: Its ICAM-1 expression is “significantly reduced”.
